From patent US8980830B2 (priority 2007, dated 2015)
Where two headings read alike, the source gives them in different places. Values belong to the molecule of their own block, whether it stands above or below them. Bridge positions count the residues as written; N and C are the ends. Square brackets hold non-standard residues; d marks the D form. Peptide text beside a SMILES is read from it. * marks the point of attachment. ξ: configuration not given here. X1 = CC(C)CCC[C@@H](C)[C@H]1CC[C@H]2[C@@H]3CC=C4C[C@@H](OC(=O)CCOCCOCCOCCOCCOCCOCCOCCOCCOCCOCCOCCOCCNC(=O)CSCCC(=O)*)CC[C@]4(C)[C@H]3CC[C@]12C; PhLac = O=C(O)[C@@H](O)Cc1ccccc1; ξPhLac = O=C(O)C(O)Cc1ccccc1

How the values were obtained:
GLP-1 Receptor = GLP-1 Receptor (Homo sapiens, UniProt P43220); test: Functional assay, cAMP induction (luciferase reporter, HEK293) at GLP-1 receptor; assay type: cell-based
GLP-1 Receptor, sequence (P43220 24-463): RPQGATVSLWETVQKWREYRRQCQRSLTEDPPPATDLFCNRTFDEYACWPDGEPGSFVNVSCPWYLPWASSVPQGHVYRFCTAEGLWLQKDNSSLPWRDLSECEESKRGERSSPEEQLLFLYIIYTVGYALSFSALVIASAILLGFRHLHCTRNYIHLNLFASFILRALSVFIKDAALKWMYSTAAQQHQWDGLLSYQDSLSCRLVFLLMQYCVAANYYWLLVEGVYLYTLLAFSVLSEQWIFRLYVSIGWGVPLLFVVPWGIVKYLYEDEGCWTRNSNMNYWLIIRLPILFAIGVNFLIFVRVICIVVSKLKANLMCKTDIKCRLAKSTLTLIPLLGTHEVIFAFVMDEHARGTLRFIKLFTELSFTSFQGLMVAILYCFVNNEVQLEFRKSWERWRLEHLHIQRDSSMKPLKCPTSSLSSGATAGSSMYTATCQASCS

Glucagon Receptor = Glucagon Receptor (Homo sapiens, UniProt P47871); test: cAMP inhibition: antagonism of glucagon-induced cAMP at glucagon receptor; assay type: cell-based; set-up: expressed in transfected cells; host or cells: HEK293
Glucagon Receptor, sequence (P47871 26-477): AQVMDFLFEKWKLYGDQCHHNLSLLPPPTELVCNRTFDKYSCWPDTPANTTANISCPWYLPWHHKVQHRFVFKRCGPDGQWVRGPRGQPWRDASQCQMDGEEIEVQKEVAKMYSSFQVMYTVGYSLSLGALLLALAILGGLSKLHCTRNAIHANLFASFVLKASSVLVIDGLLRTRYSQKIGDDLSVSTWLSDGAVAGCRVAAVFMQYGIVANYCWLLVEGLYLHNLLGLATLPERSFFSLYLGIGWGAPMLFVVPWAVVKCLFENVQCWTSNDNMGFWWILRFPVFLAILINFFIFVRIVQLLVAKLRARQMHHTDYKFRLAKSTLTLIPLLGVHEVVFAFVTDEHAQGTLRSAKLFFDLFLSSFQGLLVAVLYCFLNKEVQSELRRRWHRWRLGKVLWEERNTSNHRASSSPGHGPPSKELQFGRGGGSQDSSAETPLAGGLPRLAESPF

[1] = GLP-1 (nM), Table 13, GLP-1 agonist activity
[2] = Table 13, glucagon antagonist activity, read-out: Glu
[3] = GLP-1 agonism EC50 (nM), Table 16

Compound: CSCC[C@H](NC(=O)[C@H](CC(C)C)NC(=O)[C@H](Cc1c[nH]c2ccccc12)NC(=O)[C@H](CCC(N)=O)NC(=O)[C@@H](NC(=O)[C@H](Cc1ccccc1)NC(=O)[C@H](CC(=O)O)NC(=O)[C@H](CCC(N)=O)NC(=O)[C@H](C)NC(=O)[C@H](CCCNC(=N)N)NC(=O)[C@H](CCCNC(=N)N)NC(=O)[C@@H]1CCC(=O)NCCCC[C@H](NC(=O)[C@H](CO)NC(=O)[C@H](Cc2ccc(O)cc2)NC(=O)[C@H](CC(=O)O)NC(=O)[C@H](CO)NC(=O)[C@@H](NC(=O)[C@@H](N)Cc2ccccc2)[C@@H](C)O)C(=O)N[C@@H](Cc2ccc(O)cc2)C(=O)N[C@@H](CC(C)C)C(=O)N[C@@H](CC(=O)O)C(=O)N1)C(C)C)C(=O)N[C@@H](CC(N)=O)C(=O)N[C@H](C(=O)NCC(=O)N1CCC[C@H]1C(=O)N[C@@H](CO)C(=O)N[C@@H](CO)C(=O)NCC(=O)N[C@@H](C)C(=O)N1CCC[C@H]1C(=O)N1CCC[C@H]1C(=O)N1CCC[C@H]1C(=O)N[C@@H](CO)C(N)=O)[C@@H](C)O [D9, K12E16(Lactam)] (H-FTSDYSKYLDERRAQDFVQWLMNTGPSSGAPPPS-NH2; lactam 7-11; N-terminus assumed)
EC50 (GLP-1 Receptor; [1]): 119 nM
EC50 (GLP-1 Receptor; GLP-1 EC50 (nM), Table 15): 18 nM
IC50 (Glucagon Receptor; [2]): 828 nM

Compound: CSCC[C@H](NC(=O)[C@H](CC(C)C)NC(=O)[C@H](Cc1c[nH]c2ccccc12)NC(=O)[C@H](CCC(N)=O)NC(=O)[C@@H](NC(=O)[C@H](Cc1ccccc1)NC(=O)[C@H](CC(=O)O)NC(=O)[C@@H]1CCCCNC(=O)CC[C@H](NC(=O)[C@H](CC(=O)O)NC(=O)[C@H](CC(C)C)NC(=O)[C@H](Cc2ccc(O)cc2)NC(=O)[C@H](CCCCN)NC(=O)[C@H](CO)NC(=O)[C@H](Cc2ccc(O)cc2)NC(=O)[C@H](CCC(=O)O)NC(=O)[C@H](CO)NC(=O)[C@@H](NC(=O)[C@@H](N)Cc2ccccc2)[C@@H](C)O)C(=O)N[C@@H](CCCNC(=N)N)C(=O)N[C@@H](CCCNC(=N)N)C(=O)N[C@@H](C)C(=O)N1)C(C)C)C(=O)N[C@@H](CC(N)=O)C(=O)N[C@H](C(=O)NCC(=O)N1CCC[C@H]1C(=O)N[C@@H](CO)C(=O)N[C@@H](CO)C(=O)NCC(=O)N[C@@H](C)C(=O)N1CCC[C@H]1C(=O)N1CCC[C@H]1C(=O)N1CCC[C@H]1C(=O)N[C@@H](CO)C(N)=O)[C@@H](C)O [E9, E16K20(lactam)]
EC50 (GLP-1 Receptor; [3]): 36.4 ± 3.5 nM
IC50 (Glucagon Receptor; Glucagon antagonism IC50 (nM, inhibit 0.2-0.8 nM glucagon), Table 16, combined results of three assays): 42 ± 3.6 nM

Compound: CSCC[C@H](NC(=O)[C@H](CC(C)C)NC(=O)[C@H](Cc1c[nH]c2ccccc12)NC(=O)[C@H](CCC(N)=O)NC(=O)[C@@H](NC(=O)[C@H](Cc1ccccc1)NC(=O)[C@H](CC(=O)O)NC(=O)[C@H](CCC(N)=O)NC(=O)[C@H](C)NC(=O)[C@H](CCCNC(=N)N)NC(=O)[C@H](CCCNC(=N)N)NC(=O)[C@@H]1CCC(=O)NCCCC[C@H](NC(=O)[C@H](CO)NC(=O)[C@H](Cc2ccc(O)cc2)NC(=O)[C@H](CCC(=O)O)NC(=O)[C@H](CO)NC(=O)[C@@H](NC(=O)[C@@H](N)Cc2ccccc2)[C@@H](C)O)C(=O)N[C@@H](Cc2ccc(O)cc2)C(=O)N[C@@H](CC(C)C)C(=O)N[C@@H](CC(=O)O)C(=O)N1)C(C)C)C(=O)N[C@@H](CC(N)=O)C(=O)N[C@H](C(=O)NCC(=O)N1CCC[C@H]1C(=O)N[C@@H](CO)C(=O)N[C@@H](CO)C(=O)NCC(=O)N[C@@H](C)C(=O)N1CCC[C@H]1C(=O)N1CCC[C@H]1C(=O)N1CCC[C@H]1C(=O)N[C@@H](CO)C(N)=O)[C@@H](C)O [E9, K12E16(lactam)] (H-FTSEYSKYLDERRAQDFVQWLMNTGPSSGAPPPS-NH2; lactam 7-11; N-terminus assumed)
EC50 (GLP-1 Receptor; [1]): 63 nM
IC50 (Glucagon Receptor; [2]): 2010 nM

Compound: CSCC[C@H](NC(=O)[C@H](CC(C)C)NC(=O)[C@H](Cc1c[nH]c2ccccc12)NC(=O)[C@H](CCC(N)=O)NC(=O)[C@@H](NC(=O)[C@H](Cc1ccccc1)NC(=O)[C@H](CC(=O)O)NC(=O)[C@@H]1CCCCNC(=O)CC[C@H](NC(=O)[C@H](CC(=O)O)NC(=O)[C@H](CC(C)C)NC(=O)[C@H](Cc2ccc(O)cc2)NC(=O)[C@H](CCCCN)NC(=O)[C@H](CO)NC(=O)[C@H](Cc2ccc(O)cc2)NC(=O)[C@H](CC(=O)O)NC(=O)[C@H](CO)NC(=O)[C@@H](NC(=O)[C@@H](O)Cc2ccccc2)[C@@H](C)O)C(=O)N[C@@H](CCCNC(=N)N)C(=O)N[C@@H](CCCNC(=N)N)C(=O)N[C@@H](C)C(=O)N1)C(C)C)C(=O)N[C@@H](CC(=O)O)C(=O)N[C@H](C(=O)NCC(=O)N1CCC[C@H]1C(=O)N[C@@H](CO)C(=O)N[C@@H](CO)C(=O)NCC(=O)N[C@@H](C)C(=O)N1CCC[C@H]1C(=O)N1CCC[C@H]1C(=O)N1CCC[C@H]1C(=O)N[C@@H](CO)C(=O)N[C@@H](CCCCNC(=O)CCSCC(=O)NCCOCCOCCOCCOCCOCCOCCOCCOCCOCCOCCOCCOCCC(=O)O[C@H]1CC[C@@]2(C)C(=CC[C@H]3[C@@H]4CC[C@H]([C@H](C)CCCC(C)C)[C@@]4(C)CC[C@@H]32)C1)C(N)=O)[C@@H](C)O [K40-chol G(6-40), [PLA6, E16K20(lactam), D28, K40(COCH2CH2S-Chol)]G(6-40) amide] (H-[PhLac]TSDYSKYLDERRAKDFVQWLMDTGPSSGAPPPSK(X1)-NH2; lactam 11-15)
EC50 (GLP-1 Receptor; GLP-1 agonism EC50 (nM), Table 23, standard deviation in ( )): 47 nM
IC50 (Glucagon Receptor; Glucagon antagonism IC50 (nM, inhibit 0.4 nM glucagon), Table 23, standard deviation in ( )): 312 nM

EC50 (GLP-1 Receptor; GLP-1 agonism EC50 (nM), Table 18): 0.11 nM
IC50 (Glucagon Receptor; Glucagon antagonism IC50 (nM, inhibit 0.2-0.8 nM glucagon), Table 18): 129 ± 106 nM
character of antagonism (partial antagonist, wrapped cell) (Glucagon Receptor; Table 18): partial
character of antagonism (partial antagonist, wrapped cell) (Glucagon Receptor; Table 19): partial
character of antagonism (partial antagonist, wrapped cell) (Glucagon Receptor; Table 20): partial
Compound: CSCC[C@H](NC(=O)[C@H](CC(C)C)NC(=O)[C@H](Cc1c[nH]c2ccccc12)NC(=O)[C@H](CCC(N)=O)NC(=O)[C@@H](NC(=O)[C@H](Cc1ccccc1)NC(=O)[C@H](CC(=O)O)NC(=O)[C@@H]1CCCCNC(=O)CC[C@H](NC(=O)[C@H](CC(=O)O)NC(=O)[C@H](CC(C)C)NC(=O)[C@H](Cc2ccc(O)cc2)NC(=O)[C@H](CCCCN)NC(=O)[C@H](CO)NC(=O)[C@H](Cc2ccc(O)cc2)NC(=O)[C@H](CCC(=O)O)NC(=O)[C@H](CO)NC(=O)[C@@H](NC(=O)[C@H](Cc2ccccc2)NC(=O)[C@@H](NC(=O)CNC(=O)[C@H](CCC(=O)O)NC(=O)[C@H](C)NC(=O)[C@@H](N)Cc2c[nH]cn2)[C@@H](C)O)[C@@H](C)O)C(=O)N[C@@H](CCCNC(=N)N)C(=O)N[C@@H](CCCNC(=N)N)C(=O)N[C@@H](C)C(=O)N1)C(C)C)C(=O)N[C@@H](CC(=O)O)C(=O)N[C@H](C(N)=O)[C@@H](C)O [[A2E3, E16K20(Lactam), D28]G(1 ~ 29)]

Compound: CSCC[C@H](NC(=O)[C@H](CC(C)C)NC(=O)[C@H](Cc1c[nH]c2ccccc12)NC(=O)[C@H](CCC(N)=O)NC(=O)[C@@H](NC(=O)[C@H](Cc1ccccc1)NC(=O)[C@H](CC(=O)O)NC(=O)[C@H](CCCCN)NC(=O)[C@H](C)NC(=O)[C@H](CCCNC(=N)N)NC(=O)[C@H](CCCNC(=N)N)NC(=O)[C@H](CCC(=O)O)NC(=O)[C@H](CC(=O)O)NC(=O)[C@H](CC(C)C)NC(=O)[C@H](Cc1ccc(O)cc1)NC(=O)[C@H](CCCCN)NC(=O)[C@H](CO)NC(=O)[C@H](Cc1ccc(O)cc1)NC(=O)[C@H](CCC(=O)O)NC(=O)[C@H](CO)NC(=O)[C@@H](NC(=O)[C@@H](N)Cc1ccccc1)[C@@H](C)O)C(C)C)C(=O)N[C@@H](CC(N)=O)C(=O)N[C@H](C(=O)NCC(=O)N1CCC[C@H]1C(=O)N[C@@H](CO)C(=O)N[C@@H](CO)C(=O)NCC(=O)N[C@@H](C)C(=O)N1CCC[C@H]1C(=O)N1CCC[C@H]1C(=O)N1CCC[C@H]1C(=O)N[C@@H](CO)C(N)=O)[C@@H](C)O [[E9, E16, K20] G(6-39)]
EC50 (GLP-1 Receptor; [3]): 1040 ± 11.9 nM
Glucagon antagonism IC50(nM) (inhibit 0.2-0.8 nM glucagon) (Glucagon Receptor; Table 16, combined results of three assays): weak agonist

EC50 (GLP-1 Receptor; GLP-1 agonism EC50 (nM), Table 19): 151 ± 8.8 nM
IC50 (Glucagon Receptor; Glucagon IC50 (nM), Table 14): 10 to 30 nM
IC50 (Glucagon Receptor; Glucagon antagonism IC50 (nM, inhibit 0.8 nM glucagon), Table 19): 12.7 ± 1.1 nM
Compound: CSCC[C@H](NC(=O)[C@H](CC(C)C)NC(=O)[C@H](Cc1c[nH]c2ccccc12)NC(=O)[C@H](CCC(N)=O)NC(=O)[C@@H](NC(=O)[C@H](Cc1ccccc1)NC(=O)[C@H](CC(=O)O)NC(=O)[C@@H]1CCCCNC(=O)CC[C@H](NC(=O)[C@H](CC(=O)O)NC(=O)[C@H](CC(C)C)NC(=O)[C@H](Cc2ccc(O)cc2)NC(=O)[C@H](CCCCN)NC(=O)[C@H](CO)NC(=O)[C@H](Cc2ccc(O)cc2)NC(=O)[C@H](CCC(=O)O)NC(=O)[C@H](CO)NC(=O)[C@@H](NC(=O)[C@H](Cc2ccccc2)NC(=O)[C@@H](NC(=O)CN)[C@@H](C)O)[C@@H](C)O)C(=O)N[C@@H](CCCNC(=N)N)C(=O)N[C@@H](CCCNC(=N)N)C(=O)N[C@@H](C)C(=O)N1)C(C)C)C(=O)N[C@@H](CC(=O)O)C(=O)N[C@H](C(N)=O)[C@@H](C)O [[E9, E16K20(lactam), D28]G(4 ~ 29)] (H-GTFTSEYSKYLDERRAKDFVQWLMDT-NH2; lactam 13-17; N-terminus assumed)

GLP-1 agonism EC50(nM) (GLP-1 Receptor; Table 18): No agonism
Compound: CC[C@H](C)[C@H](NC(=O)[C@H](Cc1ccccc1)NC(=O)[C@H](CC(=O)O)NC(=O)[C@H](CCCCN)NC(=O)[C@H](C)NC(=O)[C@H](C)NC(=O)[C@H](CCC(N)=O)NC(=O)[C@@H]1CCC(=O)NCCCC[C@H](NC(=O)[C@H](CO)NC(=O)[C@H](Cc2ccc(O)cc2)NC(=O)[C@H](CC(=O)O)NC(=O)[C@H](CO)NC(=O)[C@@H](NC(=O)C(O)Cc2ccccc2)[C@@H](C)O)C(=O)N[C@@H](Cc2ccc(O)cc2)C(=O)N[C@@H](CC(C)C)C(=O)N[C@@H](CC(=O)O)C(=O)N1)C(=O)N[C@@H](C)C(=O)N[C@@H](Cc1c[nH]c2ccccc12)C(=O)N[C@@H](CC(C)C)C(=O)N[C@@H](CCSC)C(=O)N[C@@H](CC(=O)O)C(=O)N[C@H](C(N)=O)[C@@H](C)O (some centres unmarked) [[PLA6, K12E16(lactam), GLP(23-32)]G(6-29)] (H-[ξPhLac]TSDYSKYLDEQAAKDFIAWLMDT-NH2; lactam 7-11)
